According to ChEMBL document CHEMBL1140870, “Interrogating the mechanism of a tight binding inhibitor of AIR carboxylase” (Bioorg Med Chem, 2009):

Target: T1, Multifunctional protein ADE2 (Gallus gallus, UniProt P38024)
T1 sequence (P38024 whole entry): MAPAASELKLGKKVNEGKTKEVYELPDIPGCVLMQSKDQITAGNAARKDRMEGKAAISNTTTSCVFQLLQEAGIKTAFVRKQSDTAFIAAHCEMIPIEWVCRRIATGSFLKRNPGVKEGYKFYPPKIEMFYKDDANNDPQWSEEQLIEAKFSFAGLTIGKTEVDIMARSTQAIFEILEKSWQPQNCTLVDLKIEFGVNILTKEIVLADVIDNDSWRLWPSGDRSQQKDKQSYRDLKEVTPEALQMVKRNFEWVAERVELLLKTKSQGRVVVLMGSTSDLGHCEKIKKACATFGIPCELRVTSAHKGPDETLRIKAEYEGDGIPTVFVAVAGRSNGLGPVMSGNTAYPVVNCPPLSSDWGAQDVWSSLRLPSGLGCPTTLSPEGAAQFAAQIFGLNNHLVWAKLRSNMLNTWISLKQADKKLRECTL
Assay: Inhibition of Gallus gallus AIR carboxylase by CAIR decarboxylation assay

Question: For `O=[N+]([O-])c1ccn([C@@H]2O[C@H](COP(=O)(O)O)[C@@H](O)[C@H]2O)c1`, which IC50 is on record?
Answer: > 100000 nM

Question: For `Nc1c([N+](=O)[O-])ncn1[C@@H]1O[C@H](COP(=O)(O)O)[C@@H](O)[C@H]1O`, which Ki is on record?
Answer: 0.34 nM

Question: With `Nc1c([N+](=O)[O-])cnn1[C@@H]1O[C@H](COP(=O)(O)O)[C@@H](O)[C@H]1O` as the compound, how does the Ki read?
Answer: 390 nM

Question: Which Ki does the source give for `Nc1c(C(=O)O)cnn1[C@@H]1O[C@H](COP(=O)(O)O)[C@@H](O)[C@H]1O` here?
Answer: 6000 nM

Question: With `Nc1c(C=O)ncn1[C@@H]1O[C@H](COP(=O)(O)O)[C@@H](O)[C@H]1O` as the compound, how does the Ki read?
Answer: 62000 nM

Question: For `O=[N+]([O-])c1cn([C@@H]2O[C@H](COP(=O)(O)O)[C@@H](O)[C@H]2O)cn1`, which Ki is on record?
Answer: 1300 nM

Question: Which Ki does the source give for `O=[N+]([O-])c1cnn([C@@H]2O[C@H](COP(=O)(O)O)[C@@H](O)[C@H]2O)c1` here?
Answer: 22000 nM

Question: Which Ki does the source give for `Nc1c(C(=O)O)nnn1[C@@H]1O[C@H](COP(=O)(O)O)[C@@H](O)[C@H]1O` here?
Answer: 2800 nM

Tested on: not listed separately
Assay: Dissociation constant, pKa of the compound
Assay type: physicochemical

Question: For `Nc1c([N+](=O)[O-])ncn1[C@@H]1O[C@H](COP(=O)(O)O)[C@@H](O)[C@H]1O`, which pKa is on record?
Answer: 0.3
